Positions of bridges follow the written chain, without caps; N, C: chain ends. Non-standard residues stand in square brackets, D forms with d. S5 = C=CCCC[C@](C)(N)C(=O)O; βAla = NCCC(=O)O
Experiments:
Format in all cases: cell-based
[1] = system: NF-κB; assay: NF-κB luciferase reporter assay; details: for Relative NF-κB-luciferase reporter activity: HBL1 ABC DLBCL cells, 5 μM or 20 μM, 2 days, relative to DMSO (FIG. 4)
Method: A third experiment was done using a different reporter system for NF-κB activity. HBL1 and TMD8 ABC DLBCL lines cell lines were created with an NF-κB transcriptional reporter by transduction with lentiviral particles containing an inducible NF-κB-responsive luciferase reporter construct (SA Biosciences, Valencia, Calif.) and selected with puromycin. Luciferase activity was measured using the DUAL-LUCIFERASE™ Reporter Assay System (Promega) on a Microtiter Plate Luminometer (Dyn-Ex Technologies, Chantilly, Va.). The transduced HBL and TMD8 cell lines were then transfected with constructs that inducibly express control (SC4) or RNF31 shRNAs described above. Expression of shRNAs was induced using doxycyline, and the luciferase reporter activity in shRNF31 expression cells was measured and normalized relative to control (SC4). Cells were also treated with the specific IKKβ inhibitor (MLN120B) as a positive control. Experiments were done in triplicate, and results are shown in FIG. 2C (error bars indicate SEM).
The ability of these peptides to inhibit NF-κB activity in ABC DLBCL was determined using the NF-κB luciferase reporter assay described above. Negative control cells were treated with dimethyl sulfoxide (DMSO), and positive control cells were treated with Bruton's tyrosine kinase (Btk) inhibitor ibrutinib. […] Cells were treated with peptides at concentrations of 5 μM or 20 μM for 2 days. Relative NF-κB-luciferase reporter activity was normalized and measured relative to control (DMSO-treated) cells. The results of triplicate experiments are shown in FIG. 4 (error bars indicate the SEM).

[2] = target: T1, RBCK1/RNF31 interaction (Homo sapiens, UniProt Q9BYM8); assay: RBCK1/RNF31 co-immunoprecipitation (LUBAC complex formation) in co-transfected HEK-293 cells; details: HEK-293 cells, 5 μM or 20 μM, 24 hours, relative to DMSO (FIGS. 5, 6)
T1 construct: expressed in transfected cells; host or cells: HEK-293
T1 sequence (Q9BYM8 1-510): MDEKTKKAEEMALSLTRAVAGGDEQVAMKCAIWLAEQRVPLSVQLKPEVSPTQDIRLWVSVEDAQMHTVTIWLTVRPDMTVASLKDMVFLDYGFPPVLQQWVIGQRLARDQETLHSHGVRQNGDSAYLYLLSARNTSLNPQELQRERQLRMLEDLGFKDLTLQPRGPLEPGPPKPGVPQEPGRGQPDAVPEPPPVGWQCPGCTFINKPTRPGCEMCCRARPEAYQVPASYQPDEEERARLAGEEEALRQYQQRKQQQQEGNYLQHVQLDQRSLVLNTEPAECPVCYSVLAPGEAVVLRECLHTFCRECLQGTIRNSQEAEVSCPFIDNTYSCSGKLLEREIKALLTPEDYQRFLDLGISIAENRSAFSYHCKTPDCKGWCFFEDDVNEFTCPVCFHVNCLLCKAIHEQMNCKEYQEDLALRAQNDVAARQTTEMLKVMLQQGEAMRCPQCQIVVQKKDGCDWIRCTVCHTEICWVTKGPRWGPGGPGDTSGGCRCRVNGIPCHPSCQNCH

[3] = system: ABC DLBCL cell lines; assay: MTS cell viability assay, ABC DLBCL
Method: (§1) ABC and GCB DLBCL cell lines were treated with RNF31 stapled peptides of Table 2 at concentrations of 5 μM or 20 μM for four days. Cell viability was determined using the following MTS assay. Cells were plated in triplicate at a density of 15,000 cells per well in 96-well plates. Cell viability after indicated treatments was assayed by adding 3-(4,5-dimethylthiazol-2-yl)-5-(3-carboxymethoxyphenyl)-2-(4-sulphophenyl)-2H tetrazolium and an electron coupling reagent (phenazine methosulphate from Promega, Madison, Wis.), incubated for 3 hours and measured by the amount of 490 nm absorbance using a 96-well plate reader. The background was subtracted using a media only control. The results of these MTS assays done in triplicate are shown in FIGS. 7A-7D (error bars indicate the SEM), and cell viability is expressed as the fraction of cells remaining after four days treatment, relative to the initial number of cells at the start of treatment (time 0). The results of MTS cell viability assay indicate that amino-terminal cross-linked peptides RNF31-N (SEQ ID NO: 11) and RNF31-NC (SEQ ID NO: 12) were toxic to ABC DLBCL cell lines but had little effect on GCB DLBCL cell lines tested.

[4] = system: GCB DLBCL cell lines; assay: MTS cell viability assay, GCB DLBCL; details: 5 μM or 20 μM, four days (FIGS. 7A-7D)
Method: as §1

[5] = system: IκBα; assay: IκBα-luciferase reporter assay; details: ABC DLBCL cells, Example 10 (FIG. 8B)
Text: In a second experiment, HBL1 and TMD8 ABC DLBCL lines were engineered to contain an NF-κB-driven luciferase reporter. Vectors expressing an IκBα-luciferase fusion protein were constructed using Photinus luciferase from pGL3 vector (Promega, Madison, Wis.) as the reporter and Renilla luciferase construct from phRL-TK (Promega) was used for normalization. Stable clones were identified that were responsive to […] (see Lam et al, Clin Cancer Res, 11: 28-40 (2005)). After development with the DUAL-GLO luciferase assay system (Promega), the ratio of IκBα-Photinus to Renilla luminescence was normalized to that in untreated or uninduced cultures. The IκBα assay, which relies on the correlation between NF-κB activity and IKKβ kinase activity, was previously described in Lenz et al, Science, 319: 1676-1679 (2008). In brief, IKKβ kinase phosphorylates IκBα, which leads to degradation of IκBα (an inhibitor of NF-κB) and thereby activates NF-κB.
The engineered cells were transfected with control (SC4) or RNF31 shRNAs under the control of a doxycyline promoter as described in Example 2. Expression of shRNA was induced with doxycyline, and relative amounts of NF-κB Luciferase reporter activity was measured and normalized relative to control (SC4) shRNA. As additional controls, the expression of NF-κB Luciferase reporter activity was measured in cells that were not expressing shRNAs and which were either treated with the specific IKKβ inhibitor (“MLM-120B”) or untreated (“No Rx”). Experiments were done in triplicate and the results are shown in FIG. 2B (error bars indicate standard error of the mean (SEM)).

[6] = ABC DLBCL cell lines, 5 μM or 20 μM, four days (FIGS. 7A-7D)

Substance: Ac-βAla Ser Arg Xaa Leu Thr Glu Xaa Gln Arg Gln Arg Leu Glu Pro Phe Arg Gln Arg Xaa Trp Asp Ser Xaa-NH2 (Ac-[βAla]SR[S5]LTE[S5]QRQRLEPFRQR[S5]WDS[S5]-NH2; staple 20-24, 4-8; SMILES CC(=O)NCCC(=O)N[C@@H](CO)C(=O)N[C@@H](CCCNC(=N)N)C(=O)N[C@@]1(C)CCCC=CCCC[C@@](C)(C(=O)N[C@@H](CCC(N)=O)C(=O)N[C@@H](CCCNC(=N)N)C(=O)N[C@@H](CCC(N)=O)C(=O)N[C@@H](CCCNC(=N)N)C(=O)N[C@@H](CC(C)C)C(=O)N[C@@H](CCC(=O)O)C(=O)N2CCC[C@H]2C(=O)N[C@@H](Cc2ccccc2)C(=O)N[C@@H](CCCNC(=N)N)C(=O)N[C@@H](CCC(N)=O)C(=O)N[C@@H](CCCNC(=N)N)C(=O)N[C@@]2(C)CCCC=CCCC[C@@](C)(C(N)=O)NC(=O)[C@H](CO)NC(=O)[C@H](CC(=O)O)NC(=O)[C@H](Cc3c[nH]c4ccccc34)NC2=O)NC(=O)[C@H](CCC(=O)O)NC(=O)[C@H]([C@@H](C)O)NC(=O)[C@H](CC(C)C)NC1=O) [RNF31-NC]
- Relative NF-κB-luciferase reporter activity [1]: strongly inhibit NF-κB
- RBCK1/RNF31 interaction (anti-HA immunoprecipitation, densitometry) [2]: inhibited RBCK1/RNF31 interaction in a dose-dependent fashion
- Cell viability (MTS) [3, 6]: toxic
- Cell viability (MTS) [4]: little effect

Substance: Ac-βAla Ser Arg Xaa Leu Thr Glu Xaa Gln Arg Gln Arg Leu Glu Pro Phe Arg Gln Arg Leu Trp Asp Ser-NH2 (Ac-[βAla]SR[S5]LTE[S5]QRQRLEPFRQRLWDS-NH2; staple 4-8; SMILES CC(=O)NCCC(=O)N[C@@H](CO)C(=O)N[C@@H](CCCNC(=N)N)C(=O)N[C@@]1(C)CCCC=CCCC[C@@](C)(C(=O)N[C@@H](CCC(N)=O)C(=O)N[C@@H](CCCNC(=N)N)C(=O)N[C@@H](CCC(N)=O)C(=O)N[C@@H](CCCNC(=N)N)C(=O)N[C@@H](CC(C)C)C(=O)N[C@@H](CCC(=O)O)C(=O)N2CCC[C@H]2C(=O)N[C@@H](Cc2ccccc2)C(=O)N[C@@H](CCCNC(=N)N)C(=O)N[C@@H](CCC(N)=O)C(=O)N[C@@H](CCCNC(=N)N)C(=O)N[C@@H](CC(C)C)C(=O)N[C@@H](Cc2c[nH]c3ccccc23)C(=O)N[C@@H](CC(=O)O)C(=O)N[C@@H](CO)C(N)=O)NC(=O)[C@H](CCC(=O)O)NC(=O)[C@H]([C@@H](C)O)NC(=O)[C@H](CC(C)C)NC1=O) [RNF31-N]
- Relative NF-κB-luciferase reporter activity [1]: strongly inhibit NF-κB
- RBCK1/RNF31 interaction (anti-HA immunoprecipitation, densitometry) [2]: inhibited RBCK1/RNF31 interaction in a dose-dependent fashion
- Cell viability (MTS) [3, 6]: toxic
- Cell viability (MTS) [4]: little effect

Substance: Ac-βAla Ser Arg Ala Leu Thr Glu Leu Gln Arg Gln Arg Leu Glu Pro Phe Arg Gln Arg Leu Trp Asp Ser-NH2 (Ac-[βAla]SRALTELQRQRLEPFRQRLWDS-NH2; SMILES CC(=O)NCCC(=O)N[C@@H](CO)C(=O)N[C@@H](CCCNC(=N)N)C(=O)N[C@@H](C)C(=O)N[C@@H](CC(C)C)C(=O)N[C@H](C(=O)N[C@@H](CCC(=O)O)C(=O)N[C@@H](CC(C)C)C(=O)N[C@@H](CCC(N)=O)C(=O)N[C@@H](CCCNC(=N)N)C(=O)N[C@@H](CCC(N)=O)C(=O)N[C@@H](CCCNC(=N)N)C(=O)N[C@@H](CC(C)C)C(=O)N[C@@H](CCC(=O)O)C(=O)N1CCC[C@H]1C(=O)N[C@@H](Cc1ccccc1)C(=O)N[C@@H](CCCNC(=N)N)C(=O)N[C@@H](CCC(N)=O)C(=O)N[C@@H](CCCNC(=N)N)C(=O)N[C@@H](CC(C)C)C(=O)N[C@@H](Cc1c[nH]c2ccccc12)C(=O)N[C@@H](CC(=O)O)C(=O)N[C@@H](CO)C(N)=O)[C@@H](C)O) [RNF31-wt]
- NF-κB activity ([1]; ABC DLBCL cells, Example 10 (FIG. 8A)): inhibited NF-κB activity
- Relative NF-κB-luciferase reporter activity [1]: less of an effect
- RBCK1/RNF31 interaction (anti-HA immunoprecipitation, densitometry) [2]: little if any effect
- Cell viability (MTS) ([3]; ABC DLBCL cells, Example 10 (FIG. 8C)): decreased cell viability
- IκBα activity (IκBα-reporter) [5]: decreased IκBα activity
